From patent publication US20240366756A1, “COMBINATIONS AND USES THEREOF” (Incyte Corporation, priority 2011, published 2024)
Marks after values point to notes of the source that are not given here.

B1: MOR00208 (antibody, human IgG1, kappa, V domains shown)
VH: EVQLVESGGGLVKPGGSLKLSCAASGYTFTSYVMHWVRQAPGKGLEWIGYINPYNDGTKYNEKFQGRVTISSDKSISTAYMELSSLRSEDTAMYYCARGTYYYGTRVFDYWGQGTLVTVSS
VL: DIVMTQSPATLSLSPGERATLSCRSSKSLQNVNGNTYLYWFQQKPGQSPQLLIYRMSNLNSGVPDRFSGSGSGTEFTLTISSLEPEDFAVYYCMQHLEYPITFGAGTKLEIKR

Tests used:
[1] = system: RAMOS human Burkitt's lymphoma cells; test: Human Non-Hodgkin RAMOS tumor in SCID mice, survival model; format: in vivo; conditions: for Median Survival (Days Post-Inoculation): treatment related deaths excluded; for Median % Increase in Lifespan (ILS): vs. vehicle control/Ref_mAb_33; for Survival, pairwise comparison (Holm-Sidak) vs. Group 3: Group 3 = Bendamustine (16 mg/kg), listed as Bendamustine = 13 mg/kg
Method: Cyclophosphamide (Baxter, Lot. No. 1A548C); Vehicle Control: 0.9% sodium chloride, 25 mg/ml mannitol, pH 6.5-6.8 (adjusted with 0.01 M NaOH); SCID Mice (University of Adelaide, Waite Campus, Urrbaraie, SA, Australia, Strain C.B.-17-Igh-1^b-Prkdc^scid); RAMOS human Burkitt's lymphoma cells (ATCC number CRL-1596); Ref_mAb_33_IgG_Xen (10 mg/mL in PBS, referred to as Ref_mAb_33); Bendamustine (Mundipharma, Lot No. 83889).
SCID mice were pre-treated with Cyclophosphamide (75 mg/kg, i.p., twice daily) for two days prior to RAMOS cell inoculation (Day −2 and −1). On the day of inoculation (Day 0), the mice were separated into seven groups of ten mice each, and inoculated with 1×10^6 RAMOS cells each intravenously into the tail vein. The planned dosing regimen for each group is shown in Table 5 and commenced on Day 3. The study duration was 60 days.
From the raw data shown in Table 6, both the median survival in days and median increase in lifespan were calculated. All treatment related deaths were excluded in the calculations.
Median % Increased Lifespan (ILS) is calculated as follows: […]
The classification of the MOR000208/Bendamustine combination therapy (combo) effect was evaluated by comparing the ILS of the combination with the added ILS of the respective monotherapies:
Synergy/Potentiation*: ILSCombo>ILSMOR00208 3 mg/kg+ILSBendamustine. Synergistic effects are classified as potentiation if at least one of the monotherapies has no effect. Additivity: ILSCombo=ILSMOR00208 3 mg/kg+ILSBendamustine. Antagonism: ILSCombo<ILSMOR00208 3 mg/kg+ILSBendamustine.
In addition to an analysis of the data for purposes of identifying synergy, the following statistical analysis was also completed. Statistical analyses were carried out using the median values. Any animal that died unexpectedly or was culled prior to Day 17 of the study in the Test Article treatment groups was excluded from survival analysis calculation. The death/culling of these animals was attributed to compound toxicity rather than disease progression as they occurred well in advance of the first deaths in the Vehicle Control animals. A survival curve was created using the product limit of Kaplan and Meier, and survival curves compared using the log-rank (Mantel-Cox) test. Where significant differences were found, All Pairwise Multiple Comparison (Holm-Sidak Test) was performed. Comparison was done between all groups. In addition the comparison of the following groups were summarised in separate figures for each test article: Vehicle Control/Ref_mAb (group 10) against Bendamustine groups (Groups 2, 3 and 4) and Vehicle Control/Ref_mAb (group 10) against Combination groups (Groups 5 and 6) or respective MOR00208 monotherapy group (group 1). A p value of less than 0.05 was considered significant.

MEC-1 cells = test: Cytotoxicity/ADCC cell killing of MEC-1 cells with PBMCs (FACS, propidium iodide); format: cell-based, human; conditions: for normalized specific killing: combination set to 1, Bendamustine 100 μg/ml, MOR00208 6.6 pM; for % dead cells: MOR00208 6.6 pm, BEN 100 μg/ml (48 h pre-incubation), E:T 30:1, 4 h, control RefMab33
Text: MEC-1 cells: chronic B-cell leukemia cell line DSMZ #ACC497; Cell Medium: Iscove's Modified Dulbecco's Medium (IMDM) with GlutaMAX™, Invitrogen, Cat No.: 31980-048, 20% FCS; PBMCs: RPMI1640, with stabile Glutamine, PAN Biotech GmbH, Cat No.: P04-13500 supplemented with 10% FCS; Biocoll: Biochrome AG CAT No.: L6115 LOT No.: 1050T; Bendamustine: Mundipharma LOT No.: 88018; FCS: PAN CAT No.: 3302-P282403 LOT No.: P282403; and RefmAb33 (anti-RSV) with same Fc region as MOR00208.
The cytotoxicity of MOR00208 and bendamustine alone and in combination was tested in MEC-1 cells. BEN is an alkylating agent, therefore, functions via direct cytoxicity in MEC-1 cells. MOR00208 targets CD19 and additionally functions via ADCC in killing MEC-1 cells. For the following groups MEC-1 cell killing was measured: BEN at 100 μg/ml; MOR00208 at 6.6 pm and the combination of MOR00208 at 6.6 pm and BEN at 100 μg/ml. […] The following were used as controls: RefmAb33, or PBMCs alone. In both the BEN group and MOR00208+BEN combination group, MEC-1 cells were pre-incubated with BEN 48 hours prior to the ADCC assay measurements. The MEC-1 cells were stained using 1 mg/ml Calcein AM then counted and adjusted to 2×10^5/ml. The PBMCs were counted and adjusted to 6×10^6/ml. The cell killing assays were done as follows: using 96 well plates, a 100 μl cell suspension of MEC-1 cells was added per well, then 100 μl cell suspension of PBMCs was added to each well resulting in an E:T ratio of 30:1. The antibodies were diluted to 1 μg/ml in medium. Cells were centrifuged and re-suspended. To the target:effector cell-pellet, 100 μl antibody solution or according control solution was added. The mixture was incubated for 4 h in CO2-incubator at 37° C. The cell killing measurements were taken as follows: the incubated cell solution (˜100 μl) was transferred into FACS tubes and 200 μl FACS buffer (DPBS+3% FCS) and 0.5 μl PI stock solution was added to each tube. FACS-Calibur was used. Dead MEC-1 cells were stained with propidium iodide.
The values represent % dead cells. Each experiment represents PBMCs from different donors. The controls used for each experiment was RefMab33.
The values shown in Table 2 are calculated as follows: 1) from the raw data (% dead cells) shown in Table 1, the background (controls) were subtracted, resulting in the specific killing for each treatment group; then 2) the specific killing values were normalized by setting the combination of MOR00208+BEN to 1. The averages of Table 2 are depicted in FIG. 5.
[…] (CI) calculations were completed in order to determine synergy of the combination of the exemplified anti-CD19 antibody and bendamustine as compared to MOR00208 and BEN alone. Such calculations are described in Ting-Chao Chou, Theoretical Basis, Experimental Design, and Computerized Simulation of Synergism and Antagonism in Drug Combination Studies, Pharmacol Rev 58:621-681 (2006), which is incorporated by reference in its entirety and Chou T C, Talalay P, Quantitative analysis of dose-effect relationships: the combined effects of multiple drugs or enzyme inhibitors. Adv Enzyme Regul 22:27-55 (1984), which is incorporated by reference in its entirety. The methods of Chou-Talalay are carried out using the CI-isobol method.
The median-effect equation models of the effect of an inhibitor (such as a drug) as Fa/Fu=(D/D50)^m, where D is the dose, Fa and Fu is the fraction of the system affected and unaffected by the dose D (Fa+Fu=1); D50 is the dose producing the median effect (e.g. IC50, ED50, LD50). The constant m determines the shape of the dose-effect curve. We used Excel Fit software to carry out a linear regression calculation to estimate the parameters m and D50.
The effects of the combination on MEC-1 cells is measured % cell death as described above.

Human CD19 = biological target: T1, Human CD19 (human, UniProt P15391 20-556); test: cell-based or functional assay
T1 sequence: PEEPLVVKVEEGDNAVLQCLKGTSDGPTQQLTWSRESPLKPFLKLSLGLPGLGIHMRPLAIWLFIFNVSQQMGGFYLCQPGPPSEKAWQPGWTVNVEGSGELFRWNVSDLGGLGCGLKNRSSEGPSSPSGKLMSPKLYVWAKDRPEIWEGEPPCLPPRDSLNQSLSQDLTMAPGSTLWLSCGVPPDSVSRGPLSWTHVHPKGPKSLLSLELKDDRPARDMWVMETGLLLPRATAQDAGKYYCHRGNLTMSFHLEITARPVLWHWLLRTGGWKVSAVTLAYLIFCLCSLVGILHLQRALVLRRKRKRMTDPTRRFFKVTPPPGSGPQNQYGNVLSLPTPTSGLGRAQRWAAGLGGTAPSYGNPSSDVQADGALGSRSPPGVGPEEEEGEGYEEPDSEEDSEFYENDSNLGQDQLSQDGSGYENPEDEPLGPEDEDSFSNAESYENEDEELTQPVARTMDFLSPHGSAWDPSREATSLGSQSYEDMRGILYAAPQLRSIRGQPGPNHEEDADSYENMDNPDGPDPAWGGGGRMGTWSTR

Molecule	Median Survival (Days Post-Inoculation) ([1]; 13 mg/kg)	Median % Increase in Lifespan (ILS) ([1]; 13 mg/kg)	Median Survival (Days Post-Inoculation) ([1]; 16 mg/kg)	Median % Increase in Lifespan (ILS) ([1]; 16 mg/kg)	Survival, pairwise comparison (Holm-Sidak) vs. Group 3 ([1]; Table 8)	Survival, pairwise comparison (Holm-Sidak) vs. Group 3 ([1]; untitled repeat of Table 8)	normalized specific killing (MEC-1 cells; Average of experiments 1-3)	% dead cells (MEC-1 cells; Experiment 1 (PBMC donor))	normalized specific killing (MEC-1 cells; Experiment 1, background subtracted)	% dead cells (MEC-1 cells; Experiment 2 (PBMC donor))	normalized specific killing (MEC-1 cells; Experiment 2, background subtracted)	% dead cells (MEC-1 cells; Experiment 3 (PBMC donor))	normalized specific killing (MEC-1 cells; Experiment 3, background subtracted)	EC50 (MEC-1 cells; Homo sapiens, MEC1, read-out: EC50 (MEC-1 cell killing))	Bonferroni's Multiple Comparison Test Mean Diff. (MEC-1 cells; normalized specific killing, monotherapy vs. BEN + MOR00208 combination)	EC50 of MEC-1 cell killing (ADCC with human PBMCs) (Human CD19)
Cn1c(CCCC(=O)O)nc2cc(N(CCCl)CCCl)ccc21 [Bendamustine, reference compound]	24^b Days Post-Inoculation	−5.88%	24^c Days Post-Inoculation	−5.88%	No (No: There is no statistically significant difference (p ≥ 0.05).)	No (No: There is no statistically significant difference (p ≥ 0.05).)	0.8	83.6%	0.85	53.3%	0.75	75.6%	0.85	~100 µg/mL	−0.1834	
B1																~6.6 pM
